Source: US11504367B2, “Compounds and methods for treating oxalate-related diseases” (OxaluRx, Inc., priority 2019, dated 2022)

Target: recombinant full-length human hydroxyacid oxidase 1 (HAO1), the equivalents of hGOX (Homo sapiens (Human), UniProt Q9UJM8)
Assay: In-vitro human glycolate oxidase (hGOX) assay (Amplex red fluorescence)
Format: biochemical
Conditions: 6 nM recombinant human GO, 85 μM glycolate, 10 min preincubation
Procedure: The in-vitro glycolate oxidase assay was performed using recombinant full-length human hydroxyacid oxidase 1 (HAO1), the equivalents of hGOX. […] Purified HAO1 was dissolved in assay buffer consisting of 10 mM NaCl, 110 mM KCl, 2 mM MgCl2, 50 mM HEPES (pH 7.4), and 0.01% Triton™ X-100.
The plates were incubated for 10 min at room temperature, at which point Amplex red reagent (50 μM) was added.
The fluorescence intensity signal was measured on a VariosKan LUX instrument using an excitation of 560 nm and an emission of 590 nm. The IC50 values were calculated using Graphpad Prism. The fluorescence signal of wells containing only DMSO was defined as 100% GO activity, while the fluorescence signal without the glycolate substrate was defined as 0% GO activity.

recombinant full-length human hydroxyacid oxidase 1 (HAO1), the equivalents of hGOX, sequence (Q9UJM8 whole entry): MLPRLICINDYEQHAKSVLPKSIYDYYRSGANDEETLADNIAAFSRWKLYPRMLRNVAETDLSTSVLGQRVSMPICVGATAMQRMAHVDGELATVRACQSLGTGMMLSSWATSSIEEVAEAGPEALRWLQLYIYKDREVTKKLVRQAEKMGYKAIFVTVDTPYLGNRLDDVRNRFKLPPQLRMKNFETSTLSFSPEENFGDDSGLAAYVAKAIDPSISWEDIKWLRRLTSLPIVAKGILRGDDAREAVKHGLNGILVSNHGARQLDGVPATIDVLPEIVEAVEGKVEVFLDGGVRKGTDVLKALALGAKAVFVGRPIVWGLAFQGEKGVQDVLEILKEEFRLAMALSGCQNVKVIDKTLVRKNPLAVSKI

| SMILES | IC50 |
| --- | --- |
| O=C(O)c1nn[nH]c1Oc1ccc(C#Cc2cccc(F)c2)cc1 [Example 278, 5-(4-(2-(3-Fluorophenyl)ethynyl)phenoxy)-1H-1,2,3-triazole-4-carboxylic Acid] | 1 nM |
| O=C(O)c1nn[nH]c1Oc1cccc(C#Cc2cccc(F)c2)c1 [Example 279, 5-(3-(2-(3-Fluorophenyl)ethynyl)phenoxy)-1H-1,2,3-triazole-4-carboxylic Acid] | 2 nM |
| COc1ccc(C#Cc2ccc(Oc3[nH]nnc3C(=O)O)cc2)cc1 [Example 280, 5-(4-(2-(4-Methoxyphenyl)ethynyl)phenoxy)-1H-1,2,3-triazole-4-carboxylic Acid] | 4 nM |
| COc1cccc(C#Cc2ccc(Oc3[nH]nnc3C(=O)O)cc2)c1 [Example 281, 5-(4-(2-(3-Methoxyphenyl)ethynyl)phenoxy)-1H-1,2,3-triazole-4-carboxylic Acid] | 3 nM |
| COc1cc(C#Cc2cccc(Oc3[nH]nnc3C(=O)O)c2)ccn1 [Example 285, 5-(3-(2-(2-Methoxypyridin-4-yl)ethynyl)phenoxy)-1H-1,2,3-triazole-4-carboxylic Acid] | 3 nM |
| COc1cccc(C#Cc2ccc(Oc3[nH]nnc3C(=O)O)cc2)c1 [Example 286, 5-(4-(2-(3-Methoxyphenyl)ethynyl)phenoxy)-1H-1,2,3-triazole-4-carboxylic Acid] | 2 nM |
| COc1cccc(C#Cc2cccc(Oc3[nH]nnc3C(=O)O)c2)c1 [Example 287, 5-(3-(2-(3-Methoxyphenyl)ethynyl)phenoxy)-1H-1,2,3-triazole-4-carboxylic Acid] | 4 nM |
| O=C(O)c1nn[nH]c1Oc1ccc(C#Cc2ccc(F)cc2)cc1 [Example 288, 5-(4-(2-(4-Fluorophenyl)ethynyl)phenoxy)-1H-1,2,3-triazole-4-carboxylic Acid] | 1 nM |
| O=C(O)c1nn[nH]c1Oc1cccc(C#Cc2ccc(F)cc2)c1 [Example 289, 5-(3-(2-(4-Fluorophenyl)ethynyl)phenoxy)-1H-1,2,3-triazole-4-carboxylic Acid] | 1 nM |
| O=C(O)c1nn[nH]c1Oc1ccc(C#Cc2ccc(Cl)cc2)cc1 [Example 290, 5-(4-(2-(4-Chlorophenyl)ethynyl)phenoxy)-1H-1,2,3-triazole-4-carboxylic Acid] | 0.4 nM |
| O=C(O)c1nn[nH]c1Oc1cccc(C#Cc2ccc(Cl)cc2)c1 [Example 292, 5-(3-(2-(4-Chlorophenyl)ethynyl)phenoxy)-1H-1,2,3-triazole-4-carboxylic Acid] | 2 nM |
| Cc1cccc(C#Cc2cccc(Oc3[nH]nnc3C(=O)O)c2)n1 [Example 294, 5-(3-(2-(6-Methylpyridin-2-yl)ethynyl)phenoxy)-1H-1,2,3-triazole-4-carboxylic Acid] | 3 nM |
| Cc1cc(C#Cc2cccc(Oc3[nH]nnc3C(=O)O)c2)ccn1 [Example 296, 5-(3-(2-(2-Methylpyridin-4-yl)ethynyl)phenoxy)-1H-1,2,3-triazole-4-carboxylic Acid] | 1 nM |
| O=C(O)c1nn[nH]c1Oc1cccc(C#Cc2ccccn2)c1 [Example 311, 5-(3-(2-(Pyridin-2-yl)ethynyl)phenoxy)-1H-1,2,3-triazole-4-carboxylic Acid] | 3 nM |
| O=C(O)c1nn[nH]c1Oc1cccc(C#Cc2ccncc2)c1 [Example 313, 5-(3-(2-(Pyridin-4-yl)ethynyl)phenoxy)-1H-1,2,3-triazole-4-carboxylic Acid] | 3 nM |
| Cn1ncc2cc(C#Cc3cccc(Oc4[nH]nnc4C(=O)O)c3)ccc21 [Example 317, 5-(3-(2-(1-Methyl-1H-indazol-5-yl)ethynyl)phenoxy)-1H-1,2,3-triazole-4-carboxylic Acid] | 2 nM |
| Cn1ncc2ccc(C#Cc3cccc(Oc4[nH]nnc4C(=O)O)c3)cc21 [Example 319, 5-(3-(2-(1-Methyl-1H-indazol-6-yl)ethynyl)phenoxy)-1H-1,2,3-triazole-4-carboxylic Acid] | 2 nM |
| O=C(O)c1nn[nH]c1Oc1cccc(C#Cc2cn[nH]c2)c1 [Example 320, 5-(3-(2-(1H-Pyrazol-4-yl)ethynyl)phenoxy)-1H-1,2,3-triazole-4-carboxylic Acid] | 6 nM |
| O=C(O)c1nn[nH]c1Oc1ccc(C#Cc2cccc3cn[nH]c23)cc1 [Example 323, 5-(4-(2-(1H-Indazol-7-yl)ethynyl)phenoxy)-1H-1,2,3-triazole-4-carboxylic Acid] | 5 nM |
| Cn1ncc2cccc(C#Cc3cccc(Oc4[nH]nnc4C(=O)O)c3)c21 [Example 326, 5-(3-(2-(1-Methyl-1H-indazol-7-yl)ethynyl)phenoxy)-1H-1,2,3-triazole-4-carboxylic Acid] | 2 nM |
| O=C(O)c1nn[nH]c1Oc1ccc(C#Cc2cccc3[nH]ncc23)cc1 [Example 327, 5-(4-(2-(1H-Indazol-4-yl)ethynyl)phenoxy)-1H-1,2,3-triazole-4-carboxylic Acid] | 2 nM |
| O=C(O)c1nn[nH]c1Oc1cccc(C#Cc2cccc3[nH]ncc23)c1 [Example 328, 5-(3-(2-(1H-Indazol-4-yl)ethynyl)phenoxy)-1H-1,2,3-triazole-4-carboxylic Acid] | 1 nM |
| O=C(O)c1nn[nH]c1Oc1ccc(C#Cc2ccc3cn[nH]c3c2)cc1 [Example 329, 5-(4-(2-(1H-Indazol-6-yl)ethynyl)phenoxy)-1H-1,2,3-triazole-4-carboxylic Acid] | 2 nM |
| O=C(O)c1nn[nH]c1Oc1cccc(C#Cc2ccc3cn[nH]c3c2)c1 [Example 330, 5-(3-(2-(1H-Indazol-6-yl)ethynyl)phenoxy)-1H-1,2,3-triazole-4-carboxylic Acid] | 1 nM |
| O=C(O)c1nn[nH]c1Oc1cccc(C#Cc2ncc[nH]2)c1 [Example 332, 5-(3-(2-(1H-Imidazol-2-yl)ethynyl)phenoxy)-1H-1,2,3-triazole-4-carboxylic Acid] | 7 nM |
| Cn1ccnc1C#Cc1cccc(Oc2[nH]nnc2C(=O)O)c1 [Example 334, 5-(3-(2-(1-Methyl-1H-imidazol-2-yl)ethynyl)phenoxy)-1H-1,2,3-triazole-4-carboxylic Acid] | 5 nM |

Other lines, results leading:

| IC50 | SMILES |
| --- | --- |
| 3 nM | COc1cc(C#Cc2ccc(Oc3[nH]nnc3C(=O)O)cc2)ccn1 [Example 283, 5-(4-(2-(2-Methoxypyridin-4-yl)ethynyl)phenoxy)-1H-1,2,3-triazole-4-carboxylic Acid] |
| 0.3 nM | O=C(O)c1nn[nH]c1Oc1ccc(C#Cc2cccc(Cl)c2)cc1 [Example 291, 5-(4-(2-(3-Chlorophenyl)ethynyl)phenoxy)-1H-1,2,3-triazole-4-carboxylic Acid] |
| 3 nM | Cc1ccc(C#Cc2ccc(Oc3[nH]nnc3C(=O)O)cc2)cn1 [Example 297, 5-(4-(2-(6-Methylpyridin-3-yl)ethynyl)phenoxy)-1H-1,2,3-triazole-4-carboxylic Acid] |
| 3 nM | Cc1cc(C#Cc2ccc(Oc3[nH]nnc3C(=O)O)cc2)ccn1 [Example 298, 5-(4-(2-(2-Methylpyridin-4-yl)ethynyl)phenoxy)-1H-1,2,3-triazole-4-carboxylic Acid] |
| 10 nM | O=C(O)c1nn[nH]c1Oc1ccc(C#Cc2ccccn2)cc1 [Example 308, 5-(4-(2-(Pyridin-2-yl)ethynyl)phenoxy)-1H-1,2,3-triazole-4-carboxylic Acid] |
| 3 nM | O=C(O)c1nn[nH]c1Oc1ccc(C#Cc2cccnc2)cc1 [Example 309, 5-(4-(2-(Pyridin-3-yl)ethynyl)phenoxy)-1H-1,2,3-triazole-4-carboxylic Acid] |
| 4 nM | O=C(O)c1nn[nH]c1Oc1ccc(C#Cc2ccncc2)cc1 [Example 310, 5-(4-(2-(Pyridin-4-yl)ethynyl)phenoxy)-1H-1,2,3-triazole-4-carboxylic Acid] |
| 3 nM | Cn1ncc2c(C#Cc3ccc(Oc4[nH]nnc4C(=O)O)cc3)cccc21 [Example 314, 5-(4-(2-(1-Methyl-1H-indazol-4-yl)ethynyl)phenoxy)-1H-1,2,3-triazole-4-carboxylic Acid] |
| 2 nM | Cn1ncc2cc(C#Cc3ccc(Oc4[nH]nnc4C(=O)O)cc3)ccc21 [Example 316, 5-(4-(2-(1-Methyl-1H-indazol-5-yl)ethynyl)phenoxy)-1H-1,2,3-triazole-4-carboxylic Acid] |
| 2 nM | Cn1ncc2ccc(C#Cc3ccc(Oc4[nH]nnc4C(=O)O)cc3)cc21 [Example 318, 5-(4-(2-(1-Methyl-1H-indazol-6-yl)ethynyl)phenoxy)-1H-1,2,3-triazole-4-carboxylic Acid] |
| 5 nM | Cn1nccc1C#Cc1ccc(Oc2[nH]nnc2C(=O)O)cc1 [Example 321, 5-(4-(2-(1-Methyl-1H-pyrazol-5-yl)ethynyl)phenoxy)-1H-1,2,3-triazole-4-carboxylic Acid] |
| 4 nM | Cn1nccc1C#Cc1cccc(Oc2[nH]nnc2C(=O)O)c1 [Example 322, 5-(3-(2-(1-Methyl-1H-pyrazol-5-yl)ethynyl)phenoxy)-1H-1,2,3-triazole-4-carboxylic Acid] |
| 2 nM | Cn1ncc2cccc(C#Cc3ccc(Oc4[nH]nnc4C(=O)O)cc3)c21 [Example 325, 5-(4-(2-(1-Methyl-1H-indazol-7-yl)ethynyl)phenoxy)-1H-1,2,3-triazole-4-carboxylic Acid] |
| 20 nM | O=C(O)c1nn[nH]c1Oc1ccc(C#Cc2ncc[nH]2)cc1 [Example 331, 5-(4-(2-(1H-Imidazol-2-yl)ethynyl)phenoxy)-1H-1,2,3-triazole-4-carboxylic Acid] |
| 10 nM | Cn1ccnc1C#Cc1ccc(Oc2[nH]nnc2C(=O)O)cc1 [Example 333, 5-(4-(2-(1-Methyl-1H-imidazol-2-yl)ethynyl)phenoxy)-1H-1,2,3-triazole-4-carboxylic Acid] |
